The record followed here is patent publication US12110294B2, “CD73 compounds” (Gilead Sciences, Inc., priority 2020, dated 2024).

The target of this assay is T1, CD73 activity in MDA-MB-231-GFP cells (Homo sapiens, UniProt P21589).
T1 construct: endogenous in cells; host or cells: MDA-MB-231-GFP cells
T1 sequence (P21589 27-549): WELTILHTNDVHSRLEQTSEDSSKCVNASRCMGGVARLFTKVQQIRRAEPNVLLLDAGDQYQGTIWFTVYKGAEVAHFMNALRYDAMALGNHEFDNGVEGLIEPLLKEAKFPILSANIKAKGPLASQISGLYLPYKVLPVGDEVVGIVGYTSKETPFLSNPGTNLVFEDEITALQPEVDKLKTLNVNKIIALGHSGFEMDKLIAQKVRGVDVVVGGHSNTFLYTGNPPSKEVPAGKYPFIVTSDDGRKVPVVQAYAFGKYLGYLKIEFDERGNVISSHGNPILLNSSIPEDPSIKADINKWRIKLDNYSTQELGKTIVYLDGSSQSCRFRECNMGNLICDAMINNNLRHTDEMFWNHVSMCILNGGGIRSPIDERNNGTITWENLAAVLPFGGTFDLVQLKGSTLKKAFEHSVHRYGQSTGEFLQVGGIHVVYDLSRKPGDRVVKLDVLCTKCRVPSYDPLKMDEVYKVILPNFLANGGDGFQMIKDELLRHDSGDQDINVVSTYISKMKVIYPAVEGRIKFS
Put plainly: MDA-MB-231 Cell Based CD73 Activity Assay (DMEM). As to conditions: 3000 cells per well, DMEM medium with 10% human plasma, overnight compound treatment, AMP 200 uM. The protocol:
MDA-MB-231 Cell Based CD73 Activity Assay (DMEM) MDA-MB-231-GFP cells were seeded in 384-well plates (Greiner 781946) at a density of 3000 cells per well in 50 μL of DMEM medium with 10% HP (human plasma). Cells were plated into assay plate with compounds pre-spotted, for an overnight compound treatment. 50 uL of 400 uM AMP (final concentration will be 200 uM) was added using Bio-tek dispenser. Plates were incubated for 100 mins. […] The samples were analyzed using Rapid fire.
The compound `O=c1[nH]cc(-c2cc([C@H]3C[C@@H]3c3ccc4c(F)nn(CC(F)(F)F)c4c3)c3nccn3n2)c(=O)[nH]1` (racemic) [Example 117, 5-(8-((2S,2S)-2-(3-fluoro-1-(2,2,2-trifluoroethyl)-1H-indazol-6-yl)cyclopropyl)imidazo[1,2-b]pyridazin-6-yl)pyrimidine-2,4(1H,3H)-dione] showed a concentration giving a half-maximal response (EC50) of 0.14 nM.
In turn, `O=c1[nH]cc(-c2cc([C@H]3C[C@@H]3c3ccc4cnn(CC5CC5(F)F)c4c3)c3nccn3n2)c(=O)[nH]1` (mixture of isomers) [Example 118, 5-(8-((2S,2S)-2-(1-((2,2-difluorocyclopropyl)methyl)-1H-indazol-6-yl)cyclopropyl)imidazo[1,2-b]pyridazin-6-yl)pyrimidine-2,4(1H,3H)-dione] registered a concentration for a half-maximal effect (EC50) of 0.1 nM.
The figure for `O=c1[nH]cc(-c2cc([C@H]3C[C@@H]3c3cc4c(ccn4CC(F)(F)F)cn3)c3nccn3n2)c(=O)[nH]1` (racemic) [Example 127, 5-(8-((2S,2S)-2-(1-(2,2,2-trifluoroethyl)-1H-pyrrolo[3,2-c]pyridin-6-yl)cyclopropyl)imidazo[1,2-b]pyridazin-6-yl)pyrimidine-2,4(1H,3H)-dione] is 0.17 nM.
The figure for `O=c1[nH]cc(-c2cc([C@H]3C[C@@H]3c3ccc4c(C5CC5)nn(CC(F)(F)F)c4c3)c3nccn3n2)c(=O)[nH]1` (racemic) [Example 128, 5-(8-((2S,2S)-2-(3-cyclopropyl-1-(2,2,2-trifluoroethyl)-1H-indazol-6-yl)cyclopropyl)imidazo[1,2-b]pyridazin-6-yl)pyrimidine-2,4(1H,3H)-dione] is 0.4 nM.
For the compound `O=c1[nH]cc(-c2cc([C@H]3C[C@@H]3c3ccc4cnn(CC5CC5)c4c3)c3nccn3n2)c(=O)[nH]1` (racemic) [Example 130, 5-(8-((2S,2S)-2-(1-(cyclopropylmethyl)-1H-indazol-6-yl)cyclopropyl)imidazo[1,2-b]pyridazin-6-yl)pyrimidine-2,4(1H,3H)-dione], the response was half-maximal at 0.13 nM (EC50).
For the compound `O=c1[nH]cc(-c2cc([C@H]3C[C@@H]3c3ccc4ncsc4c3)c3nc(C4CC4)cn3n2)c(=O)[nH]1` (racemic) [Example 143, 5-(8-((1S,2S)-2-(benzo[d]thiazol-6-yl)cyclopropyl)-2-cyclopropylimidazo[1,2-b]pyridazin-6-yl)pyrimidine-2,4(1H,3H)-dione], the EC50 was 13.1 nM.
With `N#Cc1ccc([C@H]2C[C@@H]2c2cc(-c3c[nH]c(=O)[nH]c3=O)nn3c(F)cnc23)nc1` (racemic) [Example 151, 6-((1S,2S)-2-(6-(2,4-dioxo-1,2,3,4-tetrahydropyrimidin-5-yl)-3-fluoroimidazo[1,2-b]pyridazin-8-yl)cyclopropyl)nicotinonitrile] the figure was 1.94 nM; with `O=c1[nH]cc(-c2cc([C@H]3C[C@@H]3c3ccc4cccnc4c3)c3nccn3n2)c(=O)[nH]1` (racemic) [Example 154, 5-(8-((1S,2S)-2-(quinolin-7-yl)cyclopropyl)imidazo[1,2-b]pyridazin-6-yl)pyrimidine-2,4(1H,3H)-dione], 5.75 nM; with `N#Cc1ccc([C@H]2C[C@@H]2c2cc(-c3c[nH]c(=O)[nH]c3=O)nn3ccnc23)nc1` (racemic) [Example 155, 6-((1S,2S)-2-(6-(2,4-dioxo-1,2,3,4-tetrahydropyrimidin-5-yl)imidazo[1,2-b]pyridazin-8-yl)cyclopropyl)nicotinonitrile], 5.42 nM.
The figure for `O=c1[nH]cc(-c2cc([C@H]3C[C@@H]3c3ccc4cnccc4c3)c3nccn3n2)c(=O)[nH]1` (racemic) [Example 156, 5-(8-((1S,2S)-2-(isoquinolin-6-yl)cyclopropyl)imidazo[1,2-b]pyridazin-6-yl)pyrimidine-2,4(1H,3H)-dione] is 1.87 nM.
For the compound `O=c1[nH]cc(-c2cc([C@H]3C[C@@H]3c3ccc4ncccc4c3)c3nccn3n2)c(=O)[nH]1` (racemic) [Example 157, 5-(8-((2S,2S)-2-(quinolin-6-yl)cyclopropyl)imidazo[1,2-b]pyridazin-6-yl)pyrimidine-2,4(1H,3H)-dione], the EC50 turned out to be 2.81 nM.
The figure for `O=c1[nH]cc(-c2cc([C@H]3C[C@@H]3c3ccnc(C(F)(F)F)c3)c3nccn3n2)c(=O)[nH]1` (racemic) [Example 160, 5-(8-((2S,2S)-2-(2-(trifluoromethyl)pyridin-4-yl)cyclopropyl)imidazo[1,2-b]pyridazin-6-yl)pyrimidine-2,4(1H,3H)-dione] is 27.8 nM; for `O=c1[nH]cc(-c2cc([C@H]3C[C@@H]3c3ccncc3F)c3nccn3n2)c(=O)[nH]1` (racemic) [Example 161, 5-(8-((1S,2S)-2-(3-fluoropyridin-4-yl)cyclopropyl)imidazo[1,2-b]pyridazin-6-yl)pyrimidine-2,4(1H,3H)-dione] it is 11 nM.
Turning to `O=c1[nH]cc(-c2cc([C@H]3C[C@@H]3c3cnc4ccccc4c3)c3nccn3n2)c(=O)[nH]1` (racemic) [Example 163, 5-(8-((1S,2S)-2-(quinolin-3-yl)cyclopropyl)imidazo[1,2-b]pyridazin-6-yl)pyrimidine-2,4(1H,3H)-dione], the response was half-maximal at 10.6 nM (EC50).
Take `O=c1[nH]cc(-c2cc([C@H]3C[C@@H]3c3cncc(F)c3)c3nccn3n2)c(=O)[nH]1` (racemic) [Example 164, 5-(8-((1S,2S)-2-(5-fluoropyridin-3-yl)cyclopropyl)imidazo[1,2-b]pyridazin-6-yl)pyrimidine-2,4(1H,3H)-dione]: the EC50 is 14 nM.
The figure for `O=c1[nH]cc(-c2cc([C@H]3C[C@@H]3c3ccc(C(F)(F)F)cc3F)c3nccn3n2)c(=O)[nH]1` (racemic) [Example 165, 5-(8-((1S,2S)-2-(2-fluoro-4-(trifluoromethyl)phenyl)cyclopropyl)imidazo[1,2-b]pyridazin-6-yl)pyrimidine-2,4(1H,3H)-dione] is 38.7 nM; for `O=c1[nH]cc(-c2cc([C@H]3C[C@@H]3c3cccc4ccncc34)c3nccn3n2)c(=O)[nH]1` (racemic) [Example 166, 5-(8-((1S,2S)-2-(isoquinolin-8-yl)cyclopropyl)imidazo[1,2-b]pyridazin-6-yl)pyrimidine-2,4(1H,3H)-dione] it is 378 nM.
Regarding `O=c1[nH]cc(-c2cc([C@H]3C[C@@H]3c3ccnc4ccccc34)c3nccn3n2)c(=O)[nH]1` (racemic) [Example 167, 5-(8-((1S,2S)-2-(quinolin-4-yl)cyclopropyl)imidazo[1,2-b]pyridazin-6-yl)pyrimidine-2,4(1H,3H)-dione], the 50% effective concentration (EC50) turned out to be 152 nM.
`O=c1[nH]cc(-c2cc([C@H]3C[C@@H]3c3cccc4cnccc34)c3nccn3n2)c(=O)[nH]1` (racemic) [Example 168, 5-(8-((1S,2S)-2-(isoquinolin-5-yl)cyclopropyl)imidazo[1,2-b]pyridazin-6-yl)pyrimidine-2,4(1H,3H)-dione]: the response was half-maximal at 306 nM (EC50).
With `CCOC(=O)c1cn2nc(-c3c[nH]c(=O)[nH]c3=O)cc([C@H]3C[C@@H]3c3ccc(F)cc3)c2n1` (racemic) [Example 172, ethyl 6-(2,4-dioxo-1,2,3,4-tetrahydropyrimidin-5-yl)-8-((1S,2S)-2-(4-fluorophenyl)cyclopropyl)imidazo[1,2-b]pyridazine-2-carboxylate], the EC50 stood at 65.1 nM.
`O=c1[nH]cc(-c2cc([C@H]3C[C@@H]3c3ccccn3)c3ncc(F)n3n2)c(=O)[nH]1` (racemic) [Example 178, 5-(3-fluoro-8-((1S,2S)-2-(pyridin-2-yl)cyclopropyl)imidazo[1,2-b]pyridazin-6-yl)pyrimidine-2,4(1H,3H)-dione] showed an EC50 of 4.35 nM.
In turn, `O=c1[nH]cc(-c2cc([C@H]3C[C@@H]3c3cncnc3)c3ncc(F)n3n2)c(=O)[nH]1` (racemic) [Example 179, 5-(3-fluoro-8-((1S,2S)-2-(pyrimidin-5-yl)cyclopropyl)imidazo[1,2-b]pyridazin-6-yl)pyrimidine-2,4(1H,3H)-dione] yielded a half-maximal effective concentration (EC50) of 60.5 nM.
With `O=c1[nH]cc(-c2cc([C@H]3C[C@@H]3c3cccnc3)c3ncc(F)n3n2)c(=O)[nH]1` (racemic) [Example 180, 5-(3-fluoro-8-((1S,2S)-2-(pyridin-3-yl)cyclopropyl)imidazo[1,2-b]pyridazin-6-yl)pyrimidine-2,4(1H,3H)-dione] the figure was 4.67 nM.
Turning to `O=c1[nH]cc(-c2cc([C@H]3C[C@@H]3c3ccncc3)c3ncc(F)n3n2)c(=O)[nH]1` (racemic) [Example 181, 5-(3-fluoro-8-((1S,2S)-2-(pyridin-4-yl)cyclopropyl)imidazo[1,2-b]pyridazin-6-yl)pyrimidine-2,4(1H,3H)-dione], a half-maximal response (EC50) required 6.42 nM.
The figure for `O=c1[nH]cc(-c2cc([C@H]3C[C@@H]3c3ccc(Cl)cc3)c3ncc(F)n3n2)c(=O)[nH]1` (racemic) [Example 182, 5-(8-((2S,2S)-2-(4-chlorophenyl)cyclopropyl)-3-fluoroimidazo[1,2-b]pyridazin-6-yl)pyrimidine-2,4(1H,3H)-dione] is 10.4 nM.
